Results: ChEMBL document CHEMBL5375956, “Discovery of Pyrazolo[1,5-a]pyrimidine Derivative as a Novel and Selective ALKBH5 Inhibitor for the Treatment of AML” (J Med Chem, 2023)

Experiments:
RNA demethylase ALKBH5 [1] = target: T1, RNA demethylase ALKBH5 (Homo sapiens, UniProt Q6P6C2); assay: Inhibition of ALKBH5 (66 to 292 residues)(unknown origin) expressed in Escherichia coli BL21(DE3) using 5'-ATTGTCA(m6A)CAGCAGA-FAM-3' as substrate incubated for 30 mins by FP assay
Target sequence in this assay (Q6P6C2 whole entry, the tested form may be a part): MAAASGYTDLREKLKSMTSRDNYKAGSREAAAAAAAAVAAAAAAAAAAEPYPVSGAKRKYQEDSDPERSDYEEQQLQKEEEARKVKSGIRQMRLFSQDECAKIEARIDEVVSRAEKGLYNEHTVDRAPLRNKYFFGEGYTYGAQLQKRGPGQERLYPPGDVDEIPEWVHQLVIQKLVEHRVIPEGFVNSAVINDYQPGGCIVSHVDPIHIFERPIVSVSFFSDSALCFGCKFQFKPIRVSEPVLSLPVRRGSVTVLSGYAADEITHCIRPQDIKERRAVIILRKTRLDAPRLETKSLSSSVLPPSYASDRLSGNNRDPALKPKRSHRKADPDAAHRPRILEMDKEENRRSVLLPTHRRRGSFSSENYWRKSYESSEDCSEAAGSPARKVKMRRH

[2] = target: Alpha-ketoglutarate-dependent dioxygenase FTO (Homo sapiens, UniProt Q9C0B1); assay: Inhibition of FTO (32 to 505 residues)(unknown origin) expressed in Escherichia coli BL21(DE3) by FP assay
Chain of Alpha-ketoglutarate-dependent dioxygenase FTO (Q9C0B1 whole entry, the tested form may be a part): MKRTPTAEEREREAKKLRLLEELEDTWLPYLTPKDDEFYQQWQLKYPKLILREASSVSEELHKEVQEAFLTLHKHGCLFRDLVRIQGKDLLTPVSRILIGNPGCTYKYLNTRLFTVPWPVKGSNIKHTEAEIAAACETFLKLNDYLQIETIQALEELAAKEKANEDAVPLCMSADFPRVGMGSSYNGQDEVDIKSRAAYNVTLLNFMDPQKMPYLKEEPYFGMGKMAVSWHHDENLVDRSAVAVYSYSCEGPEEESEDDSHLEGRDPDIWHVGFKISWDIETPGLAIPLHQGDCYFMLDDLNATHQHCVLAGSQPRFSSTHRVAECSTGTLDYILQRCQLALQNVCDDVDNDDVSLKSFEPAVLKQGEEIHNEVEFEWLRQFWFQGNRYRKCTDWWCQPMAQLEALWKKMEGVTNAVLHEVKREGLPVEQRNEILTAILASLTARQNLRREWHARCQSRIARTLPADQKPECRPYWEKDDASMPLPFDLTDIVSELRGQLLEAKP

RNA demethylase ALKBH5 [3] = target: T1, RNA demethylase ALKBH5; assay: Inhibition of ALKBH5 (66 to 292 residues)(unknown origin) expressed in Escherichia coli BL21(DE3) using 5'-ATTGTCA(m6A)CAGCAGA-FAM-3' as substrate incubated for 30 mins in presence of 200 uM of 2-OG by FP based competitive binding assay
Target sequence in this assay (Q6P6C2 whole entry, the tested form may be a part): as the sequence (Q6P6C2 whole entry, the tested form may be a part) above

RNA demethylase ALKBH5 [4] = target: T1, RNA demethylase ALKBH5; assay: Inhibition of ALKBH5 (66 to 292 residues)(unknown origin) expressed in Escherichia coli BL21(DE3) using 5'-ATTGTCA(m6A)CAGCAGA-FAM-3' as substrate incubated for 30 mins in presence of 20 uM of 2-OG by FP based competitive binding assay
Target sequence in this assay (Q6P6C2 whole entry, the tested form may be a part): as above

RNA demethylase ALKBH5 [5] = target: T1, RNA demethylase ALKBH5; assay: Inhibition of ALKBH5 (66 to 292 residues)(unknown origin) expressed in Escherichia coli BL21(DE3) using 5'-ATTGTCA(m6A)CAGCAGA-FAM-3' as substrate incubated for 30 mins in presence of 2 uM of 2-OG by FP based competitive binding assay
Target sequence in this assay (Q6P6C2 whole entry, the tested form may be a part): as above

RNA demethylase ALKBH5 [6] = target: T1, RNA demethylase ALKBH5; assay: Inhibition of ALKBH5 (66 to 292 residues)(unknown origin) expressed in Escherichia coli BL21(DE3) using 5'-ATTGTCA(m6A)CAGCAGA-FAM-3' as substrate incubated for 30 mins in presence of 0.2 uM of 2-OG by FP based competitive binding assay
Target sequence in this assay (Q6P6C2 whole entry, the tested form may be a part): as above

RNA demethylase ALKBH5 [7] = target: T1, RNA demethylase ALKBH5; assay: Binding affinity to ALKBH5 (66 to 292 residues)(unknown origin) expressed in Escherichia coli BL21(DE3) assessed as increase in melting temperature incubated for 30 mins by thermal shift assay
Target sequence in this assay (Q6P6C2 2-394 limits assumed): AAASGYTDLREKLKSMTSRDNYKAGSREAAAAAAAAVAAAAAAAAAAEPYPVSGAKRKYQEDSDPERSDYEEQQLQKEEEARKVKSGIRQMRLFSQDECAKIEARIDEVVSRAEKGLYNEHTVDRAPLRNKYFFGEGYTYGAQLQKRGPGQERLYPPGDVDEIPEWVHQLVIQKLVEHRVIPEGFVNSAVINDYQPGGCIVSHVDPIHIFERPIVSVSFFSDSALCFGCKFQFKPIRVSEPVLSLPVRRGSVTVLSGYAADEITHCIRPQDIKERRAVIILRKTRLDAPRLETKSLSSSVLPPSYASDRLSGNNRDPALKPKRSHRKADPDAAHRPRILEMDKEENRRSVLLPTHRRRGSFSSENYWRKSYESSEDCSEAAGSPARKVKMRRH

| Structure (SMILES) | IC50 (RNA demethylase ALKBH5 [1]) [µM] | IC50 [2] [µM] | other results |
| --- | --- | --- | --- |
| O=C(c1cnc2cc(-c3ccc(Cl)cc3)nn2c1)c1cc(C(F)(F)F)ccc1O | > 200 | > 200 |  |
| O=C(c1cnc2cc(-c3cccc(Cl)c3)nn2c1)c1cc([N+](=O)[O-])ccc1O | 24.6 | > 200 |  |
| O=C(OCc1ccc(Cl)cc1)c1ccc(-c2cc3ncc(C(=O)c4cc([N+](=O)[O-])ccc4O)cn3n2)cc1 | 10.7 | > 200 |  |
| O=C(c1cnc2cc(-c3ccc(O)cc3)nn2c1)c1cc([N+](=O)[O-])ccc1O | 46.4 | 16.6 |  |
| O=C(O)c1ccnc(C(=O)NS(=O)(=O)c2ccccc2)c1 | 67.7 |  | IC50 (RNA demethylase ALKBH5 [3]): 269 µM; IC50 (RNA demethylase ALKBH5 [4]): 211 µM; IC50 (RNA demethylase ALKBH5 [5]): 135 µM; IC50 (RNA demethylase ALKBH5 [6]): 87.6 µM |
| O=C(c1cnc2cc(-c3ccc(Cl)cc3)nn2c1)c1c(O)ccc([N+](=O)[O-])c1O | 14.4 | 8.39 |  |
| Cc1ccc(COC(=O)c2ccc(-c3cc4ncc(C(=O)c5cc([N+](=O)[O-])ccc5O)cn4n3)cc2)cc1 | 41 | > 200 |  |
| O=C(O)c1ccc(O)c(C(=O)c2cnc3cc(-c4ccc(Cl)cc4)nn3c2)c1 | 141 | > 200 |  |
| O=C(c1cnc2cc(-c3ccc(C(F)(F)F)cc3)nn2c1)c1cc([N+](=O)[O-])ccc1O | 23.3 | > 200 |  |
| Cc1ccc(-c2cc3ncc(C(=O)c4cc([N+](=O)[O-])ccc4O)cn3n2)cc1 | > 200 | > 200 |  |

Continued, in another order:

| IC50 (RNA demethylase ALKBH5 [1]) [µM] | IC50 [2] [µM] | Structure (SMILES) | other results |
| --- | --- | --- | --- |
| 102 | > 200 | O=C(c1cnc2cc(-c3ccccc3Cl)nn2c1)c1cc([N+](=O)[O-])ccc1O |  |
| 45.1 |  | O=C(c1cnc2cc(-c3ccccc3)nn2c1)c1cc([N+](=O)[O-])ccc1O |  |
| 4.64 | > 200 | O=C(OCc1ccc(C(F)(F)F)cc1)c1ccc(-c2cc3ncc(C(=O)c4cc([N+](=O)[O-])ccc4O)cn3n2)cc1 |  |
| > 200 | > 200 | COc1ccc([N+](=O)[O-])cc1C(=O)c1cnc2cc(-c3ccc(Cl)cc3)nn2c1 |  |
| 56.5 | 5.98 | O=C(O)c1ccc(-c2cc3ncc(C(=O)c4cc([N+](=O)[O-])ccc4O)cn3n2)cc1 |  |
| > 200 | > 200 | O=C(c1cnc2cc(-c3ccc(Cl)cc3)nn2c1)c1ccccc1O |  |
| 7.88 | > 200 | O=C(OCc1ccccc1)c1ccc(-c2cc3ncc(C(=O)c4cc([N+](=O)[O-])ccc4O)cn3n2)cc1 |  |
| 15.6 | > 200 | O=C(c1cnc2cc(-c3ccc(Cl)cc3)nn2c1)c1cc([N+](=O)[O-])ccc1O | ΔTm (RNA demethylase ALKBH5 [7]): > 1 °C |
| 62.7 | > 200 | O=C(c1cnc2cc(-c3ccc(Cl)cc3)nn2c1)c1cccc([N+](=O)[O-])c1O |  |
| 9.12 | > 200 | COC(=O)c1ccc(-c2cc3ncc(C(=O)c4cc([N+](=O)[O-])ccc4O)cn3n2)cc1 |  |
